From PMC6639251, “Selective Kinase Inhibition Shows That Bur1 (Cdk9) Phosphorylates the Rpb1 Linker In Vivo” (Molecular and Cellular Biology, 2019) come the findings set out here.

One assay concerns the target T1, Kin28/Cdk7 (Kin28-IS) (Saccharomyces cerevisiae, UniProt P06242, V21C/L83G).
T1 construct: allele integrated at the natural chromosomal locus; in living yeast and nuclear extract, part of TFIIH; HA-tagged plasmid form (35 kDa) only for expression test
T1 sequence (P06242 1-306 V21C/L83G): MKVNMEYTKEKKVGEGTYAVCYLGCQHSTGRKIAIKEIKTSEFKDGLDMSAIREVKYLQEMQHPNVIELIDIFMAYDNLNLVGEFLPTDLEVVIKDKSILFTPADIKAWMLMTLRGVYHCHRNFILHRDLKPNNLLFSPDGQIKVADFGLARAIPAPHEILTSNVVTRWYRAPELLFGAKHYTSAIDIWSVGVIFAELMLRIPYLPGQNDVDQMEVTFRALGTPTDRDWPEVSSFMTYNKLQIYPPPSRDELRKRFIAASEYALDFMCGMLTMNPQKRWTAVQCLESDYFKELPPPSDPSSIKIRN
The assay can be described thus: immunoblot of Rpb1 CTD phosphorylation in yeast cells and in nuclear-extract elongation complexes. It counts as cell-based. The note with it: covalent; engineered hole and cysteine in ATP pocket; 20 uM in cells 15 min 30 C; 250 nM in nuclear extract. (In general: A western blot detects proteins with antibodies after separation by electrophoresis.)

The next assay deals with T2, Ctk1/Cdk12 (Ctk1-IS) (Saccharomyces cerevisiae, UniProt Q03957, V197C/F260G).
T2 construct: allele integrated at the natural chromosomal locus; in living yeast and nuclear extract; HA3-tagged plasmid form (61 kDa) only for expression test
T2 sequence (Q03957 1-528 V197C/F260G): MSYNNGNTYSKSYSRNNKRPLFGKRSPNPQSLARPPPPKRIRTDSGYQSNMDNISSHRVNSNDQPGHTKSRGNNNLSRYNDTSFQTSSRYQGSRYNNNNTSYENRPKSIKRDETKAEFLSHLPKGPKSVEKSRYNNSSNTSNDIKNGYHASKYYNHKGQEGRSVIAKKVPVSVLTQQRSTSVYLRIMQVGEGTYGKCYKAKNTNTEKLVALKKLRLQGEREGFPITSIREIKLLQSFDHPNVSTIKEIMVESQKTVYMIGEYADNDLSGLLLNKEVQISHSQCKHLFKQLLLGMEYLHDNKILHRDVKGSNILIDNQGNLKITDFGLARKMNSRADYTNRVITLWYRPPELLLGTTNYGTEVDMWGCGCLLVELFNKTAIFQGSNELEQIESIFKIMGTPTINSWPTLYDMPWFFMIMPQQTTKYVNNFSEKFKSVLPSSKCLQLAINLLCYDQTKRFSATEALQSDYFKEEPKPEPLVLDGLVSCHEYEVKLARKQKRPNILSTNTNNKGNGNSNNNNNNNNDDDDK
The assay can be described thus: immunoblot of Rpb1 CTD Ser2P in yeast cells and in nuclear-extract elongation complexes. It counts as cell-based. To be noted: covalent; engineered hole and cysteine in ATP pocket; 20 uM in cells 15 min 30 C; 250 nM in nuclear extract.

On to `Cc1ccc(-c2c(C(=O)CCl)n(CCCO)c3ncnc(N)c23)cc1` [CMK], for which the “immunoblot of Rpb1 CTD phosphorylation in yeast cells and in nuclear-extract elo” value on Kin28/Cdk7 (Kin28-IS) is “treatment of the Kin28-IS strain with CMK led to a significant drop in CTD Ser5P”. Besides, the “immunoblot of Rpb1 CTD Ser2P in yeast cells and in nuclear-extract elongation co” value at Ctk1/Cdk12 (Ctk1-IS) was 15-min CMK treatment of Ctk1-IS cells caused very strong loss of Ser2P.
